{"source": "patent US9801858B2", "about": "“Progress-supressing or improving agent for chronic kidney disease” (NIPPON ZOKI PHARMACEUTICAL CO., LTD., priority 2014, dated 2017)", "key": {"[1]": {"tested_on": "patients with diabetic CRF", "conditions": "cited from earlier work"}, "[2]": {"tested_on": "patients with CKD (rapidly-progressive and slowly-progressive)", "assay": "new clinical tests: investigational drug orally once daily for 24 weeks, CKD stage 3 or 4", "assay_type": "in vivo, human", "conditions": "for progress of worsening of the renal function (inclination of regression line to 1/sCr, before vs after): 24 weeks", "source_text": "During such a period, a good idea has occurred that the effect of the present compound is investigated after dividing the patients with CKD into groups where worsening of the renal function is rapid and is not. As a result, the patients with CKD were divided into a group where changes in the reciprocal sCr value (1/sCr) per month before administration of the test drug are 0.01 dL/mg or more and worsening of the renal function is rapidly progressing (hereinafter, that will be referred to as “rapidly progressive CKD patients”) and another group where said changes are less than 0.01 dL/mg (hereinafter, that will be referred to as “slowly progressive CKD patients”) and clinical tests comparing the effect of the present compound were carried out. (Hereinafter, that will be referred to as “new clinical tests”.) Such a yardstick where the changes in the reciprocal sCr value are 0.01 dL/mg or more followed the yardstick adopted in the application of “Kremezin (Registered Trade Mark)” which is the above-mentioned spherical adsorptive carbon preparation. Further, in the new clinical tests, dose of the present compound was increased to some extent so as to find the difference from the results in the old clinical tests. Summary and result of the new clinical tests will be mentioned as follows.\nA clinical test for evaluating the efficacy and the safety of the present compound was conducted using the patients where the CKD stage was 3 or 4 as the object. Persons who meet the following selection criteria were selected from the patients who were diagnosed as CKD and receiving a conservation therapy. • Sex is withdrawn from the consideration. Pregnant women and mothers suckling a baby are however excluded. • Age is from 20 to 75 years old. • GFR value is 15 to 59. • Patients where the serum creatinine (sCr) value is within a range of 1.5 to 5.0 mg/dL at the start of the test, the measuring frequencies from 52 weeks before the test until the start of the test are thrice or more and the difference in the tested values in the initial and the final stages is 0.2 mg/dL or more (showing a rise). • Patients where a therapy with a pharmaceutical agent which is thought to suppress the progress of CKD (such as a spherical adsorptive carbon preparation) or a diet therapy is newly started during three month before the start of the test are excluded. • Moreover, patients having a symptom of cerebrovascular disturbance, patients with infectious disease and patients with peptic ulcer are excluded.\nAfter that, the objects were divided into the rapidly-progressive CKD patients and slowly-progressive CKD patients.\nAs a result, in the new clinical tests, the groups to which the tablets containing the present compound as an active ingredient (test drug) are administered and to which the tablets containing no active ingredient though being undistinguishable from the test drug are divided into six groups in total. Thus, they are three groups for slowly-progressive CKD patients comprising a placebo-administered group, a 800 mg test drug-administered group and a 1600 mg test drug-administered group and other three groups for a rapidly-progressive CKD patients comprising a placebo-administered, a 800 mg test drug-administered group and a 1600 mg test drug-administered group whereby there are six groups in total. The weight mentioned hereinabove is a weight of the present compound contained in the test drug and is a dose for one day. […]"}, "[3]": {"tested_on": "rats with chronic renal failure", "conditions": "adenine-induced chronic renal failure; cited from earlier work"}}, "note": "Entries after “also recorded” stand apart in the source; their conditions may differ. Like-named read-outs stand apart in the source and are kept apart here.", "data": [{"smiles": "CN1C(=O)NC(=O)C1O", "note": "(stereo not shown) [the present compound, 5-hydroxy-1-methylhydantoin]", "values": [{"measurement": "inclination of the regression line of 1/sCr versus time", "setting": "[1]; 200 mg/day group (n=11), after the administration (24 weeks), mean±S.D., p=0.01, Non-Patent Document 2", "result": "−0.00046±0.00043"}, {"measurement": "inclination of the regression line of 1/sCr versus time", "setting": "[1]; 200 mg/day group (n=11), before the administration, mean±S.D., Non-Patent Document 2", "result": "−0.00075±0.00066"}, {"measurement": "inclination of the regression line of 1/sCr versus time", "setting": "[1]; 200 mg/day group (n=12), after the administration, p=0.016, Non-Patent Document 1", "result": "−0.0004±0.00047"}, {"measurement": "inclination of the regression line of 1/sCr versus time", "setting": "[1]; 200 mg/day group (n=12), before the administration, Non-Patent Document 1", "result": "−0.00078±0.00064"}, {"measurement": "inclination of the regression line of 1/sCr versus time", "setting": "[1]; 400 mg/day group (n=11), after the administration (24 weeks), mean±S.D., p=0.02, Non-Patent Document 2", "result": "−0.00066±0.00097"}, {"measurement": "inclination of the regression line of 1/sCr versus time", "setting": "[1]; 400 mg/day group (n=11), after the administration, p=0.024, Non-Patent Document 1", "result": "−0.00068±0.00096"}, {"measurement": "inclination of the regression line of 1/sCr versus time", "setting": "[1]; 400 mg/day group (n=11), before the administration, Non-Patent Document 1", "result": "−0.00098±0.00077"}, {"measurement": "inclination of the regression line of 1/sCr versus time", "setting": "[1]; 400 mg/day group (n=11), before the administration, mean±S.D., Non-Patent Document 2", "result": "−0.00098±0.00077"}, {"measurement": "side effect in the clinical test and in the clinical symptom", "setting": "[1]; 200 or 400 mg/day orally for 24 weeks", "result": "No critical side effect"}, {"measurement": "accumulation of the pharmaceutical agent", "setting": "[1]; during the course of the clinical test, 200 or 400 mg/day for 24 weeks", "result": "no accumulation"}, {"measurement": "progress of worsening of the renal function (inclination of regression line to 1/sCr, before vs after)", "setting": "[2]; 800 mg/day, rapidly-progressive CKD patients (five test subjects), Dunnett test", "result": "significantly suppressed or improved; also recorded: a downward-sloping inclination becomes somewhat upward rather than moderate"}, {"measurement": "progress of worsening of the renal function (inclination of regression line to 1/sCr, before vs after)", "setting": "[2]; 800 mg/day, slowly-progressive CKD patients", "result": "No such an effect was achieved"}, {"measurement": "progress of worsening of the renal function (inclination of regression line to 1/sCr, before vs after)", "setting": "[2]; 1600 mg/day, rapidly-progressive CKD patients", "result": "a certain effect was noted in a rapidly-progressive CKD patient but the effect was not so significant"}, {"measurement": "progress of worsening of the renal function (inclination of regression line to 1/sCr, before vs after)", "setting": "[2]; 1600 mg/day, slowly-progressive CKD patients", "result": "No effect was noted"}, {"measurement": "side effect / safety", "setting": "[2]; all cases including the 1600 mg/day-administered group, 24 weeks oral", "result": "almost no side effect is noted; also recorded: no critical side effect becoming a problem is observed"}, {"measurement": "action on uremic toxin such as urea nitrogen and creatinine", "setting": "[3]", "result": "action of lowering the uremic toxin"}]}]}
